Results on 9 compounds are retold here after ChEMBL document CHEMBL1132759, “The flavanolignan silybin and its hemisynthetic derivatives, a novel series of potential modulators of P-glycoprotein” (Bioorg Med Chem Lett, 2000).

Assay [1] addresses ATP-dependent translocase ABCB1 (Mus musculus, UniProt P21447). The assay can be described thus: Compound was tested for the binding affinity towards recombinant NBD2 C-terminal cytosolic nucleotide-binding domain of mouse P-Glycoprotein.
The nature of assay [2]: Change in Fmax was determined. It is filed as functional.

Chain of ATP-dependent translocase ABCB1 (P21447 whole entry, the tested form may be a part): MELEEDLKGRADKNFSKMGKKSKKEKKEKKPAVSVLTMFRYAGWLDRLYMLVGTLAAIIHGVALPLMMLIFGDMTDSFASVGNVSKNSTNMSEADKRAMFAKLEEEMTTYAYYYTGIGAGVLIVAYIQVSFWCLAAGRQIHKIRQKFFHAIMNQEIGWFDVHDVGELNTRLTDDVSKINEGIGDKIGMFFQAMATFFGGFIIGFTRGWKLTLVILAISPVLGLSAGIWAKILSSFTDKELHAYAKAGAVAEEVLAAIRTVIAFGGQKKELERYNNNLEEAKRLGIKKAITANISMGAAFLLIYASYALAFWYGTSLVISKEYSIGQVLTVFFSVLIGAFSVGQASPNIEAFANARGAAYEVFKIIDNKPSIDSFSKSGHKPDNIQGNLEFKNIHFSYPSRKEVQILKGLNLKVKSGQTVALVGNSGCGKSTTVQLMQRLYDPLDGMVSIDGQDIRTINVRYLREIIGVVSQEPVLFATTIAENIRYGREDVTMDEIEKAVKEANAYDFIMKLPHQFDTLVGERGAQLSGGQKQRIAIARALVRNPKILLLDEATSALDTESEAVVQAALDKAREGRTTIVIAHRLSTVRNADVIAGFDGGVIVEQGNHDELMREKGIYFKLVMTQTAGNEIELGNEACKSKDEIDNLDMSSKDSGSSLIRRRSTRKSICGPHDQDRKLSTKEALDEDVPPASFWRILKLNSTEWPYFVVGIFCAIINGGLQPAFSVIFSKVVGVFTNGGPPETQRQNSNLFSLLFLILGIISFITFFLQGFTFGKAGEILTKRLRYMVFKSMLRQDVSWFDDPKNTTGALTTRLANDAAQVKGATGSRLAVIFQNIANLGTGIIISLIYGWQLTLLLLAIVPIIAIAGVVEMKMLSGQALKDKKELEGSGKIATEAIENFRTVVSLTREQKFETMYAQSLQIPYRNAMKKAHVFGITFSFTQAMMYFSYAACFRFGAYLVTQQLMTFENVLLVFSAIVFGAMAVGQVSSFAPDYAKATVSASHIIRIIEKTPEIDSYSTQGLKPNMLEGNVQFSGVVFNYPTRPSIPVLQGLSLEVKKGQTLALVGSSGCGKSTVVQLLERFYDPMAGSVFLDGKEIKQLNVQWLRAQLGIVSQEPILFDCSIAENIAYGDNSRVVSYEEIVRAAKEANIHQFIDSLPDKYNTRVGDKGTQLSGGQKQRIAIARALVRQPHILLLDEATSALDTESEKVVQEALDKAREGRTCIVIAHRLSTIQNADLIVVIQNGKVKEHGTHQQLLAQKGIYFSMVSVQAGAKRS

On to `COc1ccc(-c2oc3cc(O)cc(O)c3c(=O)c2O)cc1` [KAEMPFERIDE], for which the dissociation constant Kd in assay [1] came to 4500 nM.
Regarding `COc1cc(C2Oc3cc(-c4oc5cc(O)cc(O)c5c(=O)c4O)ccc3OC2CO)ccc1O` (centres undefined), the Delta Fmax in assay [2] is 91%.
Consider `COc1cc(C2Oc3cc(-c4oc5cc(O)c(CC=C(C)C)c(O)c5c(=O)c4O)ccc3OC2CO)ccc1O` (centres undefined), for which the Delta Fmax in assay [2] stood at 90.3%. The Kd in assay [1] is 370 nM.
The matching figures for `COc1cc(C2Oc3cc([C@H]4Oc5cc(O)cc(O)c5C(=O)[C@@H]4O)ccc3OC2CO)ccc1O` (some centres undefined) [SILIBININ]: 91% and 6800 nM.
In the same order, the values of `COc1cc(C2Oc3cc(-c4oc5c(C/C=C(\C)CCC=C(C)C)c(O)cc(O)c5c(=O)c4O)ccc3OC2CO)ccc1O` (centres undefined) are 88.1% and 120 nM.
`COc1cc(C2Oc3cc(-c4oc5cc(O)c(C/C=C(\C)CCC=C(C)C)c(O)c5c(=O)c4O)ccc3OC2CO)ccc1O` (centres undefined) had a Delta Fmax in assay [2] of 83.3%. In addition, the dissociation constant Kd in assay [1] came out at 180 nM.
`O=C1C[C@@H](c2ccc(O)cc2)Oc2cc(O)cc(O)c21` [NARINGENIN]: the Kd in assay [1] was 28500 nM.
With `O=C1c2c(O)cc(O)cc2O[C@H](c2ccc(O)c(O)c2)[C@H]1O`, the Delta Fmax in assay [2] is 101%.
In assay [2], `COc1cc(C2Oc3cc(-c4oc5c(CC=C(C)C)c(O)cc(O)c5c(=O)c4O)ccc3OC2CO)ccc1O` (centres undefined) had a Delta Fmax of 93.4%. The Kd in assay [1] was found to be 250 nM.

What is called Kd is the constant that tells how readily two partners part at equilibrium.
